In one assay the test system is HCT116-WT cells. In words: Inhibitory activity against cell proliferation (CellTiter Glo, 6 days), HCT116-WT. The note with it: 144 h, HCT116-WT cells, 6 days, CellTiter Glo; read-out: HCT116-WT IC50. It counts as cell-based. Summed up: (§1)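 HCT116 wild-type or MTAP-knockout cells (250/well, McCoy's 5A + 10% FBS) treated after overnight culture with 8-point 4-fold dilutions from 10000 nM for 6 days at 37 °C. Viability read by CellTiter Glo luminescence on day 7; IC50 calculated against DMSO controls.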
(Cellular ATP, detected with luciferase, serves as a proxy for viable cell number.)

The subject of the next assay is HCT116 MTAP KO cells. In words: Inhibitory activity against cell proliferation (CellTiter Glo, 6 days), HCT116 MTAP KO. It counts as cell-based. The note with it: for IC50: Homo sapiens, HCT-116, 144 h, HCT116 MTAP KO cells, 6 days, CellTiter Glo, read-out: HCT116 MTAP KO IC50; for Selectivity HCT 116-WT/ HCT116 MTAP KO: ratio of IC50 HCT116-WT / HCT116 MTAP KO. Summed up: as §1

The target in another assay is PRMT5-MTA (Homo sapiens, UniProt O14744). Description: Enzymatic inhibitory activity against PRMT5-MTA (AlphaScreen). It counts as biochemical. The note with it: read-out: IC50. Summed up: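 PRMT5/[…] (1 nM) was preincubated for 30 min at room temperature with 1 µM […] and 2.5 µM SAM, then exposed to compound (10-point, 3-fold from 1000 nM) for 15 min at 23 °C. Histone H4 substrate (5 nM) was added and reacted for 45 min at 23 °C. Symmetric dimethyl-R3 H4 was detected by AlphaScreen and IC50 calculated.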
Background: Bead proximity is the source of the signal in Alpha formats.

The next assay has as its system MTAP-deficient HCT116. Description: Pharmacodynamic test in human colon cancer xenograft model (MTAP-deficient HCT116). The assay is classed as in vivo. The note with it: 100 mpk, orally by gavage once a day, HCT116 MTAP deficient mice xenograft. On the procedure: The compounds (100 mpk, blank vehicle as a control) were orally administered to the HCT116 MTAP deficient mice (cell source: creative biogene-CSC-RT2701) of human colon cancer xenograft model by gavage daily during the experimental planning period. The positive compound AMG9747 was synthesized according to the method reported in the patent WO2021163344A1. The compounds were formulated as follows: weighing 100.00 mg of a test compound, adding it to 10 mL of 0.5% MC4000+0.2% Tween 80, vortexing and shaking to prepare a suspension, i.e., a dose of 100 mpk. Each group had 8 mice and was subjected to administration by gavage once a day. The tumor volume was measured once in groups before administration, and measured on days 3, 6, 10, 13, 16 and 19 respectively after administration. The positive drug (synthesized according to the patent WO2021163344A1) AMG-9747 was used as a control, and compound AMG-9747 has a structure of: [drawing 1174] Table 3. Percentage of inhibition of the compounds of the present invention on tumor growth in the human colon cancer xenograft (MTAP-deficient HCT116) model
A general note: In xenograft studies the graft and the host belong to different species.

Sequence of PRMT5-MTA (O14744 whole entry): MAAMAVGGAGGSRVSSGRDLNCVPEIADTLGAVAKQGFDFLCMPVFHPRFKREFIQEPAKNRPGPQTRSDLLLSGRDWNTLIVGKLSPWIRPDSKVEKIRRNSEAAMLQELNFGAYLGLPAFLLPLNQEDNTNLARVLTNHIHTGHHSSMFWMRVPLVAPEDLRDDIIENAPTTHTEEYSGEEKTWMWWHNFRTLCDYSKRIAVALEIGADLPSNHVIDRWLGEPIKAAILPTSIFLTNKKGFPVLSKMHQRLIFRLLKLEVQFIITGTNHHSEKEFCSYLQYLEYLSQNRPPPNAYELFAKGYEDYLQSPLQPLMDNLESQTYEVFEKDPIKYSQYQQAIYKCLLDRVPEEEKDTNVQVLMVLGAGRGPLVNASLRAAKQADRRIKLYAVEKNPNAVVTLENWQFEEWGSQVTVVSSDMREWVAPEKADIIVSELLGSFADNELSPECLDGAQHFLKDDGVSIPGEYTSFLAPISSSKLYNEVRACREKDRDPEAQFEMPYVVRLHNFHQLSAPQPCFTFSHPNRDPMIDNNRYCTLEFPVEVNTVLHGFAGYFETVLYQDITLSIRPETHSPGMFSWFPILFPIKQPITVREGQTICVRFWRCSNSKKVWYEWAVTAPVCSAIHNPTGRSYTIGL
Sequence of PRMT5-MTA (Q9BQA1 whole entry partner): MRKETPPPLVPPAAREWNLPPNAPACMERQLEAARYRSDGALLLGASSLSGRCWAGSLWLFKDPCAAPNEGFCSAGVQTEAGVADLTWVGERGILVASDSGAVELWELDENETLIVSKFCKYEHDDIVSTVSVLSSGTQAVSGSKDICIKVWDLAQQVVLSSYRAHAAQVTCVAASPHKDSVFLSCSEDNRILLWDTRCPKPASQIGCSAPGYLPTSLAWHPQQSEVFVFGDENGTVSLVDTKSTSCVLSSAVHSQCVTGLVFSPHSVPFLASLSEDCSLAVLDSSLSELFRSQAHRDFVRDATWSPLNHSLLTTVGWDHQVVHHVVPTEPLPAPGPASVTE

Regarding `Cc1cc2cc(C(=O)N(Cc3ccc(-c4cnn(C(F)(F)F)c4)cn3)N(C)c3ncccn3)ccc2nc1N` [Example 189, 2-amino-N',3-dimethyl-N'-(pyrimidin-2-yl)-N-((5-(1-(trifluoromethyl)-1H-pyrazol-4-yl)pyridin-2-yl)methyl)quinoline-6-carbohydrazide], the half-inhibitory concentration (IC50) with HCT116-WT cells came out at 2310 nM; in the assay with HCT116 MTAP KO cells, 55 nM; at PRMT5-MTA, 1.7 nM. Also, in the assay with HCT116 MTAP KO cells, the “Selectivity HCT 116-WT/ HCT116 MTAP KO” value amounted to 42.00. The “Percentage of tumor growth inhibition” value with MTAP-deficient HCT116 came out at 93%.

In the case of `Cc1cc2nc(N)c3cnn(C)c3c2cc1C(=O)N1CC(C)CN1c1ncc(Br)cc1F` (stereo not drawn) [Example 392, (4-amino-1,7-dimethyl-1H-pyrazolo[4,3-c]quinolin-8-yl)(2-(5-bromo-3-fluoropyridin-2-yl)-4-methylpyrazolidin-1-yl)metha none], the IC50 with HCT116-WT cells worked out at 1130 nM; in the assay with HCT116 MTAP KO cells it was 28 nM; on PRMT5-MTA, 4 nM. Also, the “Selectivity HCT 116-WT/ HCT116 MTAP KO” value in the assay with HCT116 MTAP KO cells was 40.21. Besides, in the assay with MTAP-deficient HCT116, the “Percentage of tumor growth inhibition” value is 69%.

Consider `Cc1cc2cc(C(=O)N(Cc3ccc(-c4scnc4C)cn3)N(c3ncccn3)C3CC3)ccc2nc1N` [Example 184, 2-amino-N'-cyclopropyl-3-methyl-N-((5-(4-methylthiazol-5-yl)pyridin-2-yl)methyl)-N'-(pyrimidin-2-yl)quinoline-6-carbohydrazide], for which the half-maximal inhibitory concentration (IC50) in the assay on HCT116-WT cells is 240 nM; with HCT116 MTAP KO cells, 13 nM; on PRMT5-MTA it was 7.4 nM. Besides, the “Selectivity HCT 116-WT/ HCT116 MTAP KO” value in the assay with HCT116 MTAP KO cells is 18.46. Besides, the “Percentage of tumor growth inhibition” value in the assay with MTAP-deficient HCT116 was 81%.

For the compound `Cc1cc2cc(C(=O)N(Cc3ccc(C(F)(F)F)cn3)N(C)c3ncccn3)ccc2nc1N` [Example 1, 2-amino-N',3-dimethyl-N'-(pyrimidin-2-yl)-N-((5-(trifluoromethyl)pyridin-2-yl)methyl) quinoline-6-carbohydrazide], the IC50 in the assay on HCT116-WT cells worked out at 623 nM; with HCT116 MTAP KO cells, 32 nM; on PRMT5-MTA it was 1 nM. Moreover, the “Selectivity HCT 116-WT/ HCT116 MTAP KO” value in the assay with HCT116 MTAP KO cells came to 19.47. The “Percentage of tumor growth inhibition” value in the assay on MTAP-deficient HCT116 is listed as 80%.

Consider `Cc1cc2cc(C(=O)N(Cc3ccc(C(F)(F)F)cn3)N(c3ncccn3)C3CC3)ccc2nc1N` [Example 3, 2-amino-N'-cyclopropyl-3-methyl-N'-(pyrimidin-2-yl)-N-((5-(trifluoromethyl)pyridin-2-yl)methyl)quinoline-6-carbohydrazide], for which the IC50 in the assay on HCT116-WT cells came to 568 nM; in the assay with HCT116 MTAP KO cells, 27 nM; on PRMT5-MTA, 2.6 nM. Besides, in the assay with HCT116 MTAP KO cells, the “Selectivity HCT 116-WT/ HCT116 MTAP KO” value is 21.04. In addition, the “Percentage of tumor growth inhibition” value in the assay with MTAP-deficient HCT116 was determined as 86%.

With `Cc1cc2cc(C(=O)N(Cc3ccc(C(F)(F)F)cn3)[C@H](C)c3ncccn3)ccc2nc1N` [AMG-9747, reference compound], the “Percentage of tumor growth inhibition” value in the assay with MTAP-deficient HCT116 stood at 68%.

Consider `C=Cc1ccc(CN(C(=O)c2ccc3nc(N)c(C)cc3c2)N(C)c2ncccn2)nc1` [Example 188, 2-amino-N',3-dimethyl-N'-(pyrimidin-2-yl)-N-((5-vinylpyridin-2-yl)methyl)quinoline-6-carbohydrazide], for which the 50% inhibitory concentration (IC50) in the assay with HCT116-WT cells is 2830 nM; in the assay with HCT116 MTAP KO cells, 126 nM; at PRMT5-MTA it was 2.7 nM. For the same compound, in the assay with HCT116 MTAP KO cells, the “Selectivity HCT 116-WT/ HCT116 MTAP KO” value is reported as 22.44.

Consider `Cc1cc2cc(C(=O)N(Cc3ccc(C4=CCOCC4)cn3)N(C)c3ncccn3)ccc2nc1N` [Example 159, 2-amino-N-((5-(3,6-dihydro-2H-pyran-4-yl)pyridin-2-yl)methyl)-N',3-dimethyl-N' -(pyrimidin-2-yl)quinoline-6-carbohydrazide], for which the IC50 in the assay with HCT116-WT cells was 2070 nM; in the assay on HCT116 MTAP KO cells it was 72 nM; at PRMT5-MTA, 3.3 nM. Also, the “Selectivity HCT 116-WT/ HCT116 MTAP KO” value in the assay with HCT116 MTAP KO cells was found to be 28.76.

Consider `Cc1cc2cc(C(=O)N(Cc3ccc(-c4ccc(N5CCN(C)CC5)nc4)cn3)N(C)c3ncccn3)ccc2nc1N` [Example 140, 2-amino-N',3-dimethyl-N-((6'-(4-methylpiperazin-1-yl)-[3,3'-bipyridine]-6-yl)methyl)-N'-(pyrimidin-2-yl)quinoline-6-carbohydrazide], for which the IC50 with HCT116-WT cells was found to be 2060 nM; in the assay with HCT116 MTAP KO cells it was 46 nM; at PRMT5-MTA, 1.6 nM. For the same compound, the “Selectivity HCT 116-WT/ HCT116 MTAP KO” value in the assay with HCT116 MTAP KO cells is 44.67.

`Cc1cc2cc(C(=O)N(Cc3ccc(C(C)O)cn3)N(C)c3ncccn3)ccc2nc1N` (stereo not drawn) [Example 295, 2-amino-N-((5-(1-hydroxyethyl)pyridin-2-yl)methyl)-N',3-dimethyl-N-(pyrimidin-2-yl) quinoline-6-carbohydrazide]: the values for the IC50 in the assay with HCT116-WT cells, in the assay with HCT116 MTAP KO cells and at PRMT5-MTA were 4940 nM, 399 nM and 2 nM, respectively. Also, the “Selectivity HCT 116-WT/ HCT116 MTAP KO” value in the assay with HCT116 MTAP KO cells is on record as 12.38.

Broadly, the IC50 is the point on the concentration scale where inhibition reaches its midpoint.

The values above are taken from patent publication EP4745134A1 (Jiangsu Yahong Meditech Co., Ltd., priority 2023, dated 2025).
